Data from ChEMBL document CHEMBL1201862, “PubChem BioAssay data set” (2004).
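Five concentrations, 48 hours, 96-well plates. GI50 = concentration required for 50% inhibition of growth.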 Calls of active or inactive are those of the source. Rule as the data show it: active = GI50 up to about 1.1 µM and inactive = higher.

Experiments:
Experiment in all cases: NCI tumour cell line growth inhibition, 48 h
SF-539 = tested on: SF-539
NCI-H460 = tested on: NCI-H460
NCI-H23 = tested on: NCI-H23
DU-145 = tested on: DU-145
HCC 2998 = tested on: HCC 2998
SK-MEL-28 = tested on: SK-MEL-28
NCI-H226 = tested on: NCI-H226
CAKI-1 = tested on: CAKI-1
KM12 = tested on: KM12
OVCAR-8 = tested on: OVCAR-8
U-251 = tested on: U-251
NCI/ADR-RES = tested on: NCI/ADR-RES
OVCAR-3 = tested on: OVCAR-3
OVCAR-4 = tested on: OVCAR-4
TK-10 = tested on: TK-10
SK-MEL-2 = tested on: SK-MEL-2
UO-31 = tested on: UO-31
HCT-116 = tested on: HCT-116
SNB-75 = tested on: SNB-75
MDA-MB-231 = tested on: MDA-MB-231

Measured: GI50

CN(C)NC1=NS(=O)(=O)c2cc3c(=O)n(C)[nH]c3cc2S1
inactive: SF-539 > 10 µM | NCI-H460 > 10 µM | NCI-H23 > 10 µM | DU-145 > 10 µM | HCC 2998 > 10 µM | SK-MEL-28 > 10 µM | NCI-H226 > 10 µM | CAKI-1 > 10 µM | KM12 > 10 µM | OVCAR-8 > 10 µM | U-251 > 10 µM | NCI/ADR-RES > 10 µM | OVCAR-3 > 10 µM | OVCAR-4 > 10 µM | TK-10 > 10 µM | SK-MEL-2 > 10 µM | UO-31 > 10 µM | HCT-116 > 10 µM | SNB-75 > 10 µM

COc1ccc2nc3n(c2c1)C(c1c(F)cccc1Cl)SC3 (stereo not drawn)
inactive: NCI-H460 > 100 µM | NCI-H23 > 100 µM | DU-145 > 100 µM | HCC 2998 > 100 µM | SK-MEL-28 > 100 µM | CAKI-1 > 100 µM | KM12 > 100 µM | OVCAR-8 46.8 µM | U-251 > 100 µM | NCI/ADR-RES 23.3 µM | OVCAR-3 > 100 µM | OVCAR-4 > 100 µM | TK-10 > 100 µM | SK-MEL-2 > 100 µM | UO-31 > 100 µM | HCT-116 > 100 µM | SNB-75 > 100 µM

COc1ccc(C(O)c2nccn2C)c(OC)c1 (stereo not drawn)
inactive: SF-539 > 100 µM | NCI-H460 > 100 µM | NCI-H23 > 100 µM | DU-145 > 100 µM | HCC 2998 > 100 µM | SK-MEL-28 > 100 µM | NCI-H226 > 100 µM | CAKI-1 > 100 µM | KM12 > 100 µM | OVCAR-8 > 100 µM | U-251 > 100 µM | NCI/ADR-RES > 100 µM | OVCAR-3 > 100 µM | OVCAR-4 > 100 µM | TK-10 > 100 µM | SK-MEL-2 > 100 µM | UO-31 > 100 µM | HCT-116 > 100 µM | SNB-75 29.6 µM

COc1cc(COC(=O)N[C@H](C(=O)O)C(C)(C)C)c([N+](=O)[O-])cc1OC
inactive: SF-539 > 100 µM | NCI-H460 > 100 µM | NCI-H23 > 100 µM | DU-145 > 100 µM | HCC 2998 > 100 µM | SK-MEL-28 > 100 µM | NCI-H226 > 100 µM | KM12 > 100 µM | OVCAR-8 > 100 µM | U-251 > 100 µM | NCI/ADR-RES > 100 µM | OVCAR-3 > 100 µM | TK-10 > 100 µM | UO-31 > 100 µM | HCT-116 > 100 µM | SNB-75 > 100 µM

C[C@H]1O[C@@H](C(C)(C)C)OC(=O)[C@@H]1C(OC(=O)c1ccccc1)c1cccc2ccccc12 (stereo partly drawn)
inactive: SF-539 > 100 µM | NCI-H460 > 100 µM | NCI-H23 > 100 µM | HCC 2998 > 100 µM | SK-MEL-28 > 100 µM | NCI-H226 8.87 µM | CAKI-1 > 100 µM | KM12 > 100 µM | OVCAR-8 > 100 µM | U-251 > 100 µM | NCI/ADR-RES 56.1 µM | MDA-MB-231 > 100 µM | OVCAR-3 > 100 µM | OVCAR-4 > 100 µM | TK-10 > 100 µM | SK-MEL-2 > 100 µM | UO-31 > 100 µM | HCT-116 > 100 µM | SNB-75 > 100 µM

Cc1ccc(S(=O)(=O)N/N=C2/C(=O)Nc3c(Cl)cc(Cl)cc32)cc1
inactive: SF-539 66.1 µM | NCI-H460 44.2 µM | NCI-H23 63.1 µM | HCC 2998 75.9 µM | SK-MEL-28 > 100 µM | NCI-H226 > 100 µM | CAKI-1 59.4 µM | KM12 > 100 µM | OVCAR-8 38.8 µM | U-251 58.1 µM | NCI/ADR-RES 40 µM | MDA-MB-231 > 100 µM | OVCAR-3 60.3 µM | OVCAR-4 > 100 µM | TK-10 79.1 µM | SK-MEL-2 > 100 µM | UO-31 41.6 µM | HCT-116 44.3 µM

CN(/N=C/c1ccccn1)C1=NCCCN1
inactive: SF-539 > 100 µM | NCI-H460 > 100 µM | NCI-H23 > 100 µM | HCC 2998 > 100 µM | SK-MEL-28 > 100 µM | NCI-H226 > 100 µM | CAKI-1 > 100 µM | KM12 > 100 µM | OVCAR-8 > 100 µM | U-251 > 100 µM | NCI/ADR-RES > 100 µM | MDA-MB-231 > 100 µM | OVCAR-3 > 100 µM | OVCAR-4 > 100 µM | TK-10 > 100 µM | SK-MEL-2 > 100 µM | UO-31 > 100 µM | HCT-116 > 100 µM | SNB-75 > 100 µM

COc1ccc(OC)c(NC(=O)c2c(Cl)c(Cl)c(Cl)c(Cl)c2-c2nc3ccccc3[nH]2)c1
inactive: SF-539 > 100 µM | NCI-H460 > 100 µM | NCI-H23 > 100 µM | DU-145 > 100 µM | HCC 2998 > 100 µM | SK-MEL-28 > 100 µM | NCI-H226 > 100 µM | CAKI-1 > 100 µM | KM12 > 100 µM | OVCAR-8 56.9 µM | NCI/ADR-RES > 100 µM | OVCAR-3 > 100 µM | OVCAR-4 > 100 µM | UO-31 > 100 µM | HCT-116 > 100 µM | SNB-75 > 100 µM
